Data as given in publication PMC7926352, “Synthesis, Characterization and In Vitro Evaluation of Novel 5-Ene-thiazolo[3,2-b][1,2,4]triazole-6(5H)-ones as Possible Anticancer Agents” (Molecules, 2021).
Like-named read-outs stand apart in the source and are kept apart here.

Experiments:
Melanoma cell lines = conditions: for GI50 / CC50: Homo sapiens
SNB-19 = assay type: cell-based; conditions: SNB-19, CNS Cancer
[1] = system: NSCLC (Non-small Cell Lung Cancer) cell lines; conditions: for GI50 / CC50: Homo sapiens
[2] = system: Prostate Cancer cell lines; conditions: for GI50 / CC50: Homo sapiens
[3] = system: human embryonic kidney (HEK 293) cell lines; test: MTT cytotoxicity assay; assay type: cell-based; conditions: Homo sapiens, HEK293; HEK 293, MTT, 24 h
Experimental: Compounds 2h and 2i were also evaluated in vitro for their cytotoxic potential against human embryonic kidney (HEK 293) cell lines using the MTT assay.
The cytotoxicity of compounds 2h and 2i was analyzed in vitro by the MTT colorimetric assay on human embryonic kidney cell lines (HEK 293). HEK cell lines were cultured in DMEM supplemented with 10% fetal calf serum and 1% antibiotic-antimycotic mixture culture plates at 37 °C and 5% CO2-humidified incubator. Cells were seeded at a density of 1 × 10^5 cells/well in 96-well plate for 24 h; then, cells were washed and incubated in fresh medium. Compounds 2h and 2i were added at a concentration of 1, 5, 10, 25, and 50 μg/mL to triplicate wells and kept for 24 h, after which cells were washed three times with PBS. After washing, 20 μL of MTT solution (5 mg/mL stock solution) were added to each well, and cells were then incubated for an additional 4 h. The unreacted MTT dye and medium were aspirated off, and 100 μL of DMSO was added to each well to ensure solubilization of formazan crystals. The contents of the plates were mixed for 15 min to achieve complete solubilization of the formazan crystals, and the measurement of optical density was carried out at 570 nm with a micro plate spectrophotometer (MRX Microplate Reader, Dynatech Laboratories Inc., Chantilly, VA, USA) at 570 nm.

[4] = read-out: GI50, values range inside panel
[5] = read-out: LC50, values range inside panel

`O=C(COc1ccc(Cl)cc1/C=c1\sc2ncnn2c1=O)Nc1ccc(Cl)cc1` [Compound 2h, (Z)-2-(4-Chloro-2-((6-oxothiazolo[3,2-b][1,2,4]triazol-5(6H)-ylidene)methyl)phenoxy)-N-(4-chlorophenyl)acetamide] gave a GI50 (UO-31; Homo sapiens, UO-31) of 2.29 µM, a CC50 (UO-31; Homo sapiens, UO-31, read-out: LC50) of 44.7 µM and a TGI (UO-31; UO-31, Renal Cancer) of 17.37 µM. The TGI (NCI/ADR-RES; Breast Cancer) was 41.68 µM, the GI50 (NCI/ADR-RES; Homo sapiens) was 15.5 µM and the CC50 (NCI/ADR-RES; Homo sapiens, read-out: LC50) was > 100 µM. For the same molecule, the GI50 (MDA-MB-231/ATCC; Homo sapiens, MDA-MB-231) was < 0.01 µM, the CC50 (MDA-MB-231/ATCC; Homo sapiens, MDA-MB-231, read-out: LC50) was 75.9 µM and the TGI (MDA-MB-231/ATCC; MDA-MB-231/ATCC, Breast Cancer) was 11.48 µM. For the same molecule, the GI50 (Melanoma cell lines; read-out: GI50, panel MG_MID) was 4.79 µM, the GI50 (Melanoma cell lines; [4]) was 2.63 to 8.31 µM and the CC50 (Melanoma cell lines; read-out: LC50, panel MG_MID) was 41.2 µM. The CC50 (Melanoma cell lines; [5]) was 33.1 to 51.3 µM, the “TGI, panel MG_MID” value (Melanoma cell lines; Melanoma subpanel) was 16.49 µM and the “TGI, values range inside panel” value (Melanoma cell lines; Melanoma subpanel) was 11.22 to 20.89 µM. The GI50 (SF-295; Homo sapiens, SF-295) was 1.86 µM, the CC50 (SF-295; Homo sapiens, SF-295, read-out: LC50) was 18.6 µM and the TGI (SF-295; SF-295, CNS Cancer) was 5.24 µM. It also gave a GI50 (SNB-19; Homo sapiens) of 3.8 µM, a CC50 (SNB-19; Homo sapiens, read-out: LC50 (the source's name)) of 38 µM and a TGI (SNB-19) of 14.45 µM. For the same molecule, the GI50 (OVCAR-8; Homo sapiens, OVCAR-8) was 3.16 µM, the CC50 (OVCAR-8; Homo sapiens, OVCAR-8, read-out: LC50) was 41.7 µM and the TGI (OVCAR-8; OVCAR-8, Ovarian Cancer) was 12.88 µM. For the same molecule, the GI50 (MOLT-4; Homo sapiens, MOLT-4) was 1.9 µM, the CC50 (MOLT-4; Homo sapiens, MOLT-4, read-out: LC50) was 22.9 µM and the TGI (MOLT-4; MOLT-4, Leukemia) was 5.01 µM. The GI50 (OVCAR-5; Homo sapiens, OVCAR-5) was 11.2 µM, the CC50 (OVCAR-5; Homo sapiens, OVCAR-5, read-out: LC50) was 47.9 µM and the TGI (OVCAR-5; OVCAR-5, Ovarian Cancer) was 23.44 µM. The GI50 ([1]; read-out: GI50, panel MG_MID) was 6.98 µM, the GI50 [1, 4] was 2.29 to 15.5 µM and the CC50 ([1]; read-out: LC50, panel MG_MID) was 44 µM. For the same molecule, the CC50 [1, 5] was 31.6 to 60.2 µM, the “TGI, panel MG_MID” value ([1]; NSCLC subpanel) was 18.22 µM and the “TGI, values range inside panel” value ([1]; NSCLC subpanel) was 9.99 to 30.90 µM. It also gave a GI50 ([2]; read-out: GI50, panel MG_MID) of 2.67 µM, a GI50 [2, 4] of 1.54 to 3.8 µM and a CC50 ([2]; read-out: LC50, panel MG_MID) of 30.8 µM. For the same molecule, the CC50 [2, 5] was 15.8 to 45.7 µM, the “TGI, panel MG_MID” value ([2]; Prostate Cancer subpanel) was 10.34 µM and the “TGI, values range inside panel” value ([2]; Prostate Cancer subpanel) was 4.46 to 16.21 µM. It also gave an IC50 [3] of 29 µM, a GI50 (SK-OV-3; Homo sapiens, SK-OV-3) of 15.5 µM and a CC50 (SK-OV-3; Homo sapiens, SK-OV-3, read-out: LC50) of 53.7 µM. It also gave a TGI (SK-OV-3; SK-OV-3, Ovarian Cancer) of 28.84 µM, a GI50 (OVCAR-4; Homo sapiens, OVCAR-4) of 8.91 µM and a CC50 (OVCAR-4; Homo sapiens, OVCAR-4, read-out: LC50) of 97.7 µM. The TGI (OVCAR-4; OVCAR-4, Ovarian Cancer) was 30.90 µM, the GI50 (SW-620; Homo sapiens, SW-620) was 4.26 µM and the CC50 (SW-620; Homo sapiens, SW-620, read-out: LC50) was 38 µM. The TGI (SW-620; SW-620, Colon cancer) was 14.79 µM, the GI50 (U251; Homo sapiens, U-251) was 4.07 µM and the CC50 (U251; Homo sapiens, U-251, read-out: LC50) was 38 µM. The TGI (U251; U251, CNS Cancer) was 14.45 µM, the TGI (786-0; 786-0, Renal Cancer) was 15.84 µM and the GI50 (786-0; Homo sapiens, 786-0) was 4.16 µM. The CC50 (786-0; Homo sapiens, 786-0, read-out: LC50) was 39.8 µM, the GI50 (ACHN; Homo sapiens) was 12.6 µM and the CC50 (ACHN; Homo sapiens, read-out: LC50) was 50.1 µM. The TGI (ACHN; Renal Cancer) was 25.11 µM, the GI50 (RXF 393; Homo sapiens, RXF 393) was 1.9 µM and the CC50 (RXF 393; Homo sapiens, RXF 393, read-out: LC50) was 36.3 µM. It also gave a TGI (RXF 393; RXF 393, Renal Cancer) of 8.51 µM, a GI50 (NCI-H522; Homo sapiens, NCI-H522) of 3.16 µM and a CC50 (NCI-H522; Homo sapiens, NCI-H522, read-out: LC50) of 38 µM. For the same molecule, the TGI (NCI-H522; NCI-H522, NSCLC) was 9.99 µM, the TGI (A498; A498, Renal Cancer) was 22.38 µM and the GI50 (A498; Homo sapiens, A498) was 10.5 µM. It also gave a CC50 (A498; Homo sapiens, A498, read-out: LC50) of 46.8 µM, a GI50 (CCRF-CEM; Homo sapiens) of 1.35 µM and a CC50 (CCRF-CEM; Homo sapiens, read-out: LC50) of 7.58 µM. The TGI (CCRF-CEM; Leukemia) was 3.16 µM, the GI50 (MDA-MB-435; Homo sapiens, MDA-MB-435) was 2.95 µM and the CC50 (MDA-MB-435; Homo sapiens, MDA-MB-435, read-out: LC50) was 28.8 µM. For the same molecule, the TGI (MDA-MB-435; MDA-MB-435, Breast Cancer) was 12.58 µM, the GI50 (RPMI-8226; Homo sapiens, RPMI-8226) was 1.69 µM and the CC50 (RPMI-8226; Homo sapiens, RPMI-8226, read-out: LC50) was 26.9 µM. It also gave a TGI (RPMI-8226; RPMI-8226, Leukemia) of 4.89 µM, a GI50 (OVCAR-3; Homo sapiens, OVCAR-3) of 2.18 µM and a CC50 (OVCAR-3; Homo sapiens, OVCAR-3, read-out: LC50) of 19.5 µM. The TGI (OVCAR-3; OVCAR-3, Ovarian Cancer) was 5.62 µM.
